In data set [1] the test system is experimental allergic encephalitis (EAE). Kind of data set: experimental allergic encephalitis (EAE) model induced by intraplantar myelin basic protein (fragment 68-84) in Freund's complete adjuvant. In kind it is in vivo. As to conditions: EAE in Lewis rats, administered orally from day zero of induction. The text has this: The activity of the compounds of formula (I) was investigated in the model of experimental allergic encephalitis (EAE) induced in Lewis rats by the intraplantar administration of myelin basic protein (MBP) (fragment 68-84) in a Freund's complete adjuvant (FCA) enriched in Mycobacterium tuberculosis, according to the protocol published by Martin and Near (Journal of Neuroimmunology, 1995, 241-245).
EAE is an inflammatory autoimmune disease of the central nervous system which presents demyelinating lesions reminiscent of human multiple sclerosis.

Counter-ions that a name gives are not always drawn.

The melting point is the temperature of the solid-liquid transition.

Take `CCCCCc1ccc(CCN2CC=C(c3cccc(C(F)(F)F)c3)CC2)cc1C` (as salt: oxalate): the melting point is 140 to 143 °C.

Compound `FC(F)(F)c1cccc(C2=CCN(CC(c3ccccc3)c3ccccc3)CC2)c1` (as salt: hydrochloride) registered a melting point of 207 to 210 °C.

As to `Cl.FC(F)(F)c1cccc(C2=CCN(CCc3ccc4ccccc4c3)CC2)c1` [1-(2-naphth-2-ylethyl)-4-(3-trifluoromethylphenyl)-1,2,3,6-tetrahydropyridine hydrochloride], the “severity of the disease (paralysis of the back paws)” value in data set [1] is “statistically less severe”. Further, the “weight loss of the treated animals” value in data set [1] (compared with animals treated with the vehicle only) is given as “significantly lower”.

The record behind these values is patent US6344464B1, “Use of tetrahydropyridine derivatives to prepare medicines for treating diseases causing demyelination” (Sanofi-Synthelabo, priority 1997, dated 2002).
